Experimental data from patent US11440913B2, “Aminoimidazopyridazines as kinase inhibitors” (BRISTOL-MYERS SQUIBB COMPANY, priority 2017, dated 2022).
pIC50: −log10 of the molar value.

Experiments:
[1] = test system: MLKL phosphorylation in HT29-L23 human colorectal adenocarcinoma cells; experiment: MLKL Phosphorylation High-Content Assay; type: cell-based; conditions: Homo sapiens, 6 h, necroptosis induced with TNFα, SMAC mimetic and Z-VAD, read-out: pMLKL (IC50)
Method in brief: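 HT29-L23 cells pretreated 30 min at 37 °C with compound (6.25 to 0.106 μM final), then necroptosis induced with TNFα 35 ng/mL, SMAC mimetic 700 nM and Z-VAD 140 nM for 6 h. Fixed cells immunostained for MLKL pS358 and imaged; IC50 and Ymax from 4-parameter logistic fit.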

[2] = target: His-GST-TVMV-hRIPK1(1-324) (Homo sapiens (Human), UniProt Q13546); experiment: RIPK1 HTRF Binding Assay; conditions: HTRF binding, 1 h at rt; read-out: RIPK1 (IC50)
Method in brief: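 HTRF probe-displacement binding: 1 nM His-GST-TVMV-hRIPK1(1-324) (baculovirus construct), 90.6 nM probe, 0.2 nM anti-GST-Tb in 20 mM HEPES, 10 mM MgCl2, 0.015% Brij-35, 4 mM DTT, 0.05 mg/mL BSA. Incubated 1 h at rt; FRET 520/495 nm ratio, inhibition relative to DMSO-only wells.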

Sequence of His-GST-TVMV-hRIPK1(1-324) (Q13546 1-324): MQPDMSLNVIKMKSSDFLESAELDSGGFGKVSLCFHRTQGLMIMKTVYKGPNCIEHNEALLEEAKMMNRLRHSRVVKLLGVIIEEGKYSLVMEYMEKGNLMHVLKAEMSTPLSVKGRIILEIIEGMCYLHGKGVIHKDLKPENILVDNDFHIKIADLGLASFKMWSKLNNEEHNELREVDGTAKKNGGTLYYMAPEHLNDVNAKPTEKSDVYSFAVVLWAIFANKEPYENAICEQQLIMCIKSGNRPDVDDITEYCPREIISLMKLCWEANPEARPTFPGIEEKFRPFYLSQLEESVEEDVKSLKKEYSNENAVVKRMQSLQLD

For `CC(=O)Nc1cn2nc(-c3ccc(F)c(C(=O)NCc4cc(F)ccc4C(=O)N4CCC(F)(F)CC4)c3F)ccc2n1` [Example 381, N-{[2-(4,4-difluoropiperidine-1-carbonyl)-5-fluorophenyl]methyl}-3-{2-acetamidoimidazo [1,2-b]pyridazin-6-yl}-2,6-difluorobenzamide], the pIC50 [1] was 7.13 and the pIC50 [2] was 8.10.
Compound `CC(=O)Nc1cn2nc(-c3cc(C(=O)NCC[C@@H](O)c4ccc(Cl)cc4)c(C)cc3C)ccc2n1` [Example 382, N-[(3R)-3-(4-chlorophenyl)-3-hydroxypropyl]-5-{2-acetamidoimidazo [1,2-b]pyridazin-6-yl}-2,4-dimethylbenzamide] has a pIC50 [1] of 8.70 and a pIC50 [2] of 8.40.
Work on `CC(=O)Nc1cn2nc(-c3cc(C(=O)NCC[C@H](O)c4ccc(Cl)cc4)c(C)cc3C)ccc2n1` [Example 383, N-[(3S)-3-(4-chlorophenyl)-3-hydroxypropyl]-5-{2-acetamidoimidazo [1,2-b]pyridazin-6-yl}-2,4-dimethylbenzamide] yielded a pIC50 [1] of 8.52 and a pIC50 [2] of 8.52.
In the case of `CC(=O)Nc1cn2nc(-c3cc(C(=O)NCc4cc(C(F)(F)F)cc(Cl)c4F)c(C)cc3C)ccc2n1` [Example 384, N-{[3-chloro-2-fluoro-5-(trifluoromethyl)phenyl]methyl}-5-{2-acetamidoimidazo [1,2-b]pyridazin-6-yl}-2,4-dimethylbenzamide], the pIC50 [1] was 7.00 and the pIC50 [2] was 7.32.
`CC(=O)Nc1cn2nc(-c3ccc(C(F)(F)F)c(C(=O)NCc4cc(C(F)(F)F)ccc4F)c3)ccc2n1` [Example 385, 5-{2-acetamidoimidazo [1,2-b]pyridazin-6-yl}-N-{[2-fluoro-5-(trifluoromethyl)phenyl]methyl}-2-(trifluoromethyl) benzamide] showed a pIC50 [1] of 6.72 and a pIC50 [2] of 7.24.
`CC(=O)Nc1cn2nc(-c3ccc(Cl)c(C(=O)NCC[C@@H](O)c4ccc(Cl)cc4)c3)ccc2n1` [Example 386, 2-chloro-N-[(3R)-3-(4-chlorophenyl)-3-hydroxypropyl]-5-{2-acetamidoimidazo [1,2-b]pyridazin-6-yl}benzamide] was tested, and the pIC50 [1] was 7.89 and the pIC50 [2] was 8.30.
`CC(=O)Nc1cn2nc(-c3ccc(Cl)c(C(=O)NCc4cc(F)ccc4C(=O)N4CCC(F)(F)C4)c3)ccc2n1` [Example 387, 2-chloro-N-{[2-(3,3-difluoropyrrolidine-1-carbonyl)-5-fluorophenyl]methyl}-5-{2-acetamidoimidazo [1,2-b]pyridazin-6-yl}benzamide] was tested, and the pIC50 [1] was 8.30 and the pIC50 [2] was 8.10.
In the case of `CC(=O)Nc1cn2nc(-c3ccc(Cl)c(C(=O)N[C@H](C)c4cc(OC(F)(F)F)ccc4F)c3F)ccc2n1` [Example 388, 6-chloro-3-{2-acetamidoimidazo [1,2-b]pyridazin-6-yl}-2-fluoro-N-[(1R)-1-[2-fluoro-5-(trifluoromethoxy)phenyl]ethyl] benzamide], the pIC50 [1] was 8.70 and the pIC50 [2] was 8.15.
For `CC(=O)Nc1cn2nc(-c3ccc(Cl)c(C(=O)NCc4cc(-c5cnn(C)c5)ccc4F)c3F)ccc2n1` [Example 389, 6-chloro-3-{2-acetamidoimidazo [1,2-b]pyridazin-6-yl}-2-fluoro-N-{[2-fluoro-5-(1-methyl-1H-pyrazol-4-yl)phenyl]methyl} benzamide], the pIC50 [1] was 8.10 and the pIC50 [2] was 8.40.
Work on `CC(=O)Nc1cn2nc(-c3ccc(Cl)c(C(=O)NCC[C@H](O)c4ccc(Cl)cc4)c3F)ccc2n1` [Example 390, 6-chloro-N-[(3S)-3-(4-chlorophenyl)-3-hydroxypropyl]-3-{2-acetamidoimidazo [1,2-b]pyridazin-6-yl}-2-fluorobenzamide] yielded a pIC50 [1] of 8.52 and a pIC50 [2] of 8.30.
Work on `CC(=O)Nc1cn2nc(-c3ccc(Cl)c(C(=O)NCc4ccc(OC(F)(F)F)cc4)c3F)ccc2n1` [Example 391, 6-chloro-3-{2-acetamidoimidazo [1,2-b]pyridazin-6-yl}-2-fluoro-N-{[4-(trifluoromethoxy)phenyl]methyl} benzamide] yielded a pIC50 [1] of 6.56 and a pIC50 [2] of 6.98.
With `CC(=O)Nc1cn2nc(-c3cc(C(=O)N[C@H](C)c4cc(OC(F)(F)F)ccc4F)c(Cl)cc3F)ccc2n1` [Example 392, 2-chloro-5-{2-acetamidoimidazo [1,2-b]pyridazin-6-yl}-4-fluoro-N-[(1R)-1-[2-fluoro-5-(trifluoromethoxy)phenyl]ethyl] benzamide] the pIC50 [1] was 7.14 and the pIC50 [2] was 7.44.
`CC(=O)Nc1cn2nc(-c3ccc(C)c(C(=O)NCc4cc(OC(F)(F)F)ccc4F)c3)ccc2n1` [Example 394, 5-{2-acetamidoimidazo [1,2-b]pyridazin-6-yl}-N-{[2-fluoro-5-(trifluoromethoxy)phenyl]methyl}-2-methylbenzamide] gave a pIC50 [1] of 8.52 and a pIC50 [2] of 8.52.
Compound `Cc1ccc(-c2ccc3nc(NC(=O)[C@H](C)O)cn3n2)cc1C(=O)NCc1cc(OC(F)(F)F)ccc1F` [Example 395, (S)-N-(2-fluoro-5-(trifluoromethoxy)benzyl)-5-(2-(2-hydroxypropanamido)imidazo[1,2-b]pyridazin-6-yl)-2-methylbenzamide] has a pIC50 [1] of 7.60 and a pIC50 [2] of 8.15.
In the case of `CC(=O)Nc1cn2nc(-c3ccc(C)c(C(=O)N[C@H](C)c4cc(OC(F)(F)F)ccc4F)c3)ccc2n1` [Example 396, (R)-5-(2-acetamidoimidazo [1,2-b]pyridazin-6-yl)-N-(1-(2-fluoro-5-(trifluoromethoxy)phenyl)ethyl)-2-methylbenzamide], the pIC50 [1] was 8.15 and the pIC50 [2] was 9.00.
With `CC(=O)Nc1cn2nc(-c3ccc(C)c(C(=O)NCC[C@@H](O)c4ccc(Cl)cc4)c3)ccc2n1` [Example 397, N-[(3R)-3-(4-chlorophenyl)-3-hydroxypropyl]-5-{2-acetamidoimidazo [1,2-b]pyridazin-6-yl}-2-methylbenzamide] the pIC50 [1] was 8.52 and the pIC50 [2] was 8.52.
In the case of `CC(=O)Nc1cn2nc(-c3ccc(C)c(C(=O)NCC[C@H](O)c4ccc(Cl)cc4)c3)ccc2n1` [Example 398, N-[(3S)-3-(4-chlorophenyl)-3-hydroxypropyl]-5-{2-acetamidoimidazo [1,2-b]pyridazin-6-yl}-2-methylbenzamide], the pIC50 [1] was 8.70 and the pIC50 [2] was 8.30.
Compound `CC(=O)Nc1cn2nc(-c3ccc(C)c(C(=O)NCC(O)COc4ccccc4)c3)ccc2n1` (stereo not shown) [Example 400, 5-{2-acetamidoimidazo [1,2-b]pyridazin-6-yl}-N-(2-hydroxy-3-phenoxypropyl)-2-methylbenzamide] has a pIC50 [1] of 7.96 and a pIC50 [2] of 7.96.
Work on `CC(=O)Nc1cn2nc(-c3ccc(C)c(C(=O)NC[C@H]4C[C@@H]4c4ccc(F)cc4)c3)ccc2n1` [Example 401, 5-{2-acetamidoimidazo [1,2-b]pyridazin-6-yl}-N-{[(1S, 2S)-2-(4-fluorophenyl)cyclopropyl]methyl}-2-methylbenzamide] yielded a pIC50 [1] of 7.11 and a pIC50 [2] of 6.98.
`CC(=O)Nc1cn2nc(-c3ccc(C)c(C(=O)NCc4c(F)cccc4-c4cnn(C)c4)c3)ccc2n1` [Example 402, 5-{2-acetamidoimidazo [1,2-b]pyridazin-6-yl}-N-{[2-fluoro-6-(1-methyl-1H-pyrazol-4-yl)phenyl]methyl}-2-methylbenzamide] was tested, and the pIC50 [1] was 7.03 and the pIC50 [2] was 7.25.
Work on `CC(=O)Nc1cn2nc(-c3ccc(C)c(C(=O)NCc4cc(F)ccc4-c4cnn(C)c4)c3)ccc2n1` [Example 403, 5-{2-acetamidoimidazo [1,2-b]pyridazin-6-yl}-N-{[5-fluoro-2-(1-methyl-1H-pyrazol-4-yl)phenyl]methyl}-2-methylbenzamide] yielded a pIC50 [1] of 6.58 and a pIC50 [2] of 7.17.
For `CC(=O)Nc1cn2nc(-c3ccc(C)c(C(=O)NCc4cc(C(=O)N5CC(F)(F)C5)ccc4F)c3)ccc2n1` [Example 404, N-{[5-(3,3-difluoroazetidine-1-carbonyl)-2-fluorophenyl]methyl}-5-{2-acetamidoimidazo [1,2-b]pyridazin-6-yl}-2-methylbenzamide], the pIC50 [1] was 6.59 and the pIC50 [2] was 7.28.
With `CC(=O)Nc1cn2nc(-c3ccc(C)c(C(=O)NCc4ccc(F)cc4C(=O)N4CCC(F)(F)C4)c3)ccc2n1` [Example 405, N-{[2-(3,3-difluoropyrrolidine-1-carbonyl)-4-fluorophenyl]methyl}-5-{2-acetamidoimidazo [1,2-b]pyridazin-6-yl}-2-methylbenzamide] the pIC50 [1] was 7.00 and the pIC50 [2] was 7.85.
Compound `CC(=O)Nc1cn2nc(-c3ccc(C)c(C(=O)NCc4cc(C(=O)N5CCC(C)(C)C5)ccc4F)c3)ccc2n1` [Example 406, N-{[5-(3,3-dimethylpyrrolidine-1-carbonyl)-2-fluorophenyl]methyl}-5-{2-acetamidoimidazo [1,2-b]pyridazin-6-yl}-2-methylbenzamide] has a pIC50 [1] of 6.34 and a pIC50 [2] of 6.79.
Compound `CC(=O)Nc1cn2nc(-c3ccc(C)c(C(=O)NCc4cc(F)cc(F)c4C(=O)N4CC[C@H](O)C4)c3)ccc2n1` [Example 407, N-({3,5-difluoro-2-[(3S)-3-hydroxypyrrolidine-1-carbonyl]phenyl}methyl)-5-{2-acetamidoimidazo [1,2-b]pyridazin-6-yl}-2-methylbenzamide] has a pIC50 [1] of 6.41 and a pIC50 [2] of 7.43.
In the case of `CC(=O)Nc1cn2nc(-c3ccc(C)c(C(=O)NCc4cc(F)ccc4C(=O)N4CCCCC4)c3)ccc2n1` [Example 408, 5-{2-acetamidoimidazo [1,2-b]pyridazin-6-yl}-N-{[5-fluoro-2-(piperidine-1-carbonyl)phenyl]methyl}-2-methylbenzamide], the pIC50 [1] was 8.10 and the pIC50 [2] was 8.10.
